Experimental findings from PMC7531286 (Phytomedicine, 2020) are described below.

Data set [1] has as its target SARS-CoV-2 spike protein (S1 subunit, His tag) (Severe acute respiratory syndrome coronavirus 2, UniProt P0DTC2). Put plainly: biochemical. It is filed as binding.
For data set [2], the target named is MERS-CoV spike protein (S1 subunit, His tag) (Middle East respiratory syndrome-related coronavirus, UniProt K9N5Q8). Put plainly: biochemical. It is filed as binding.
Data set [3] addresses SARS-CoV spike protein (S1 subunit, His tag) (Severe acute respiratory syndrome coronavirus, UniProt P59594). Put plainly: biochemical. It is filed as binding.
The target in data set [4] is SARS-CoV-2 S-RBD/ACE2 interaction (Severe acute respiratory syndrome coronavirus 2, UniProt P0DTC2). The data set is classed as cell-based.
For data set [5], the system named is mouse aorta smooth muscle cells (MASMCs). Put plainly: MTT cell toxicity assay, MASMCs. The conditions noted are these: at high concentrations (100 μM). In general terms: Tetrazolium assays rely on reduction of a dye to a coloured formazan, in cell work by metabolically active cells.

For orientation: Kd means the concentration at which binding is half-saturated. A higher Kd goes with weaker binding.

Chain of MERS-CoV spike protein (S1 subunit, His tag) (K9N5Q8 18-751 limits assumed): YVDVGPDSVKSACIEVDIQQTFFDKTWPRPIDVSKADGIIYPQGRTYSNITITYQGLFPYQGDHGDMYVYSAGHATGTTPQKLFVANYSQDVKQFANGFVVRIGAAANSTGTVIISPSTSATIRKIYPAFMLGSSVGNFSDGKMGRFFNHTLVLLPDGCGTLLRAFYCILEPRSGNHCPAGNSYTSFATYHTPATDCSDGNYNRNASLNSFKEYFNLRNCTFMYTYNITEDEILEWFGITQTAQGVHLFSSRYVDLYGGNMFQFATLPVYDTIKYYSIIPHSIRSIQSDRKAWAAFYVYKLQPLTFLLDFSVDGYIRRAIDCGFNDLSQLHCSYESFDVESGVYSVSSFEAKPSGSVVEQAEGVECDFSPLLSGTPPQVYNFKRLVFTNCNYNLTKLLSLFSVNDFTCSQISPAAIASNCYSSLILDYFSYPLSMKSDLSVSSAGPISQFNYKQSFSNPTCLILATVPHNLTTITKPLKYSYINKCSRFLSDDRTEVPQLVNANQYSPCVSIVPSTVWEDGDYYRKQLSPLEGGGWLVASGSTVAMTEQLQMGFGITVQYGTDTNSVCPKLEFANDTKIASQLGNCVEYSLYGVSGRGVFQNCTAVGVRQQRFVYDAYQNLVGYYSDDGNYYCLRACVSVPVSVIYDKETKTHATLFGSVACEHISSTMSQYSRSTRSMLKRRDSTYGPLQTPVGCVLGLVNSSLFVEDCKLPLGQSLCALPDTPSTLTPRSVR

On to `CC(C)=CCC[C@](C)(O[C@@H]1O[C@H](CO[C@@H]2OC[C@@H](O)[C@H](O)[C@H]2O)[C@@H](O)[C@H](O)[C@H]1O)[C@H]1CC[C@]2(C)[C@@H]1[C@H](O)C[C@@H]1[C@@]3(C)CC[C@H](O[C@@H]4O[C@H](CO)[C@@H](O)[C@H](O)[C@H]4O[C@@H]4O[C@H](CO)[C@@H](O)[C@H](O)[C@H]4O)C(C)(C)[C@@H]3CC[C@]12C` [ZZY-13, Ginsenoside Rb3], for which the Kd in data set [1] worked out at 1000 nM; in data set [2] it was 250 nM; in data set [3], 2000 nM. Further, the “Disruption of the SARS-CoV-2 S-RBD/ACE2 interaction in cells” value in data set [4] was “could disrupt”. The “Cell toxicity to MASMCs” value in data set [5] is recorded as “no cell toxicity”.
Turning to `CC(C)=CCC[C@](C)(O[C@@H]1O[C@H](CO[C@@H]2O[C@H](CO)[C@@H](O)[C@H](O)[C@H]2O)[C@@H](O)[C@H](O)[C@H]1O)[C@H]1CC[C@]2(C)[C@@H]1[C@H](O)C[C@@H]1[C@@]3(C)CC[C@H](O[C@@H]4O[C@H](CO)[C@@H](O)[C@H](O)[C@H]4O[C@@H]4O[C@H](CO)[C@@H](O)[C@H](O)[C@H]4O)C(C)(C)[C@@H]3CC[C@]12C` [ZZY-9, Ginsenoside Rb1], the equilibrium dissociation constant (Kd) in data set [1] is 470 nM; in data set [2], 3450 nM; in data set [3], 29700 nM.
Consider `CC1(C)[C@@H](O[C@H]2O[C@H](C(=O)O)[C@@H](O)[C@H](O)[C@H]2O[C@@H]2O[C@H](C(=O)O)[C@@H](O)[C@H](O)[C@H]2O)CC[C@]2(C)[C@H]3C(=O)C=C4[C@@H]5C[C@@](C)(C(=O)O)CC[C@]5(C)CC[C@@]4(C)[C@]3(C)CC[C@@H]12` [ZZY-44, Glycyrrhizic acid], for which the Kd in data set [2] stood at 470 nM; in data set [3], 66800 nM. Further, the “Disruption of the SARS-CoV-2 S-RBD/ACE2 interaction in cells” value in data set [4] is listed as “could disrupt”. For the same compound, in data set [5], the “Cell toxicity to MASMCs” value is “no cell toxicity”.
Regarding `COc1ccc2cc3[n+](cc2c1OC)CCc1cc2c(cc1-3)OCO2` [ZZY-54, Berberine Chloride], the Kd is 1240 nM in data set [1], 7390 nM in data set [2] and 23900 nM in data set [3].
